The test system of the test is hNPCs. As to the kind of experiment: hNPC attachment, proliferation and phenotype on co-assembled PA coatings (EdU, SOX-2, PAX6). The class given is cell-based, human. An excerpt:
Neural progenitor cells (NPCs) were differentiated from human embryonic stem cells HUES 64 (Harvard University) (see FIG. 2C). In short, 70% confluent stem cell cultures grown in Matrigel (Thermo Fisher) coated plates with mTESR medium (STEMCELL Technologies), were switched to N2B27 medium (50% DMEM: F12, 50% Neurobasal, supplemented with NEAA, Glutamax, N2 and B27; Gibco) containing dual SMAD inhibitors (SB431542, DNSK International and LDN-193189, Tocris) for 12 days to induce the generation of neural progenitors. Neuralization was enhanced by supplementing medium with laminin from day 5 to 12. Next, neural rosettes were dissociated with neural rosette selection reagent (STEMCELL Technologies) to obtain NPCs, which are expanded in N2B27 (Gibco) medium supplemented with bFGF (Millipore). For experimentation in the different PA platforms, NPCs were dissociated with Accutase (Innovative Cell technology), and cultured in the distinct platforms with DMEM: F12+N2+B27 medium with hyclone penicillin-streptomycin (GE Healthcare) and ascorbic acid (0.2 μg/mL; Sigma-Aldrich).
For IKVAV PA treatments, hNPCs were cultured on ornithine coatings (German Glass, Chemglass Life Science) in 6 well and 24 well plates at a density of 500,000 cells/well and 80,000 cells/well respectively. hNPCs were treated with […] of IKVAV PAs ([PA]=6 mM, [KCl]=3 mM, [NaCl]=150 mM) or recombinant laminin protein (10 mg/mL) in solution. IKVAV PA2 and IKVAV PA5 were also mixed with 5 mM CaCl2) at a ratio PA:CaCl2) 6:1 to treat hNPCs. For 2D experiments, hNPCs were cultured on the different IKVAV PAs or laminin coatings in 6 well and 24 well plates at densities mentioned above. For co-assembled experiments, hNPCs were cultured on the different co-assembled PA coatings in 6 well and 24 well plates at a density of 400,000 cells/well and 50,000 cells/well respectively.
hNPCs were fed 4 times a week with DMEM: F12+N2^+B27 medium with hyclone penicillin-streptomycin and ascorbic acid. After 24 h, 72 h 1- or 2-weeks in vitro, cell lysates were harvested or fixed for WB or ICC, respectively. Three replicates per condition and at least three independent experiments were carried out for all conditions investigated.
For the hNPCs proliferation assay, 2 μM of the thymidine analog 5-ethynyl-2′-deoxyuridine (EdU, Thermo Fisher) was incorporated into the culture medium for 24 h. Cells were fixed at the indicated time points in 4% paraformaldehyde (PFA) for 15 min at RT. After fixation, samples were washed in PBS twice and then stained with Click-iT™ EdU Cell Proliferation Kit containing 11 mM CuSO4 (from 50 mM stock) and 1 μg/mL of Alexa Fluor-555 azide (from 0.5 mg/mL, Thermo Fisher) for 30 minutes at RT in the dark. The staining cocktail was then removed, and cells were washed with PBS. Then, hNPCs were counterstained with anti-rabbit SOX-2 antibody following the immunofluorescence protocol described below and 4′, 6-diamidino-2-phenylindole (DAPI, Thermo Fisher) at 5 μg/mL in PBS for 20 min at RT. The cells were then washed with PBS and mounted with Immu-Mount (Fisher Scientific) for imaging.
For immunofluorescence, fixed primary cultures or free-floating tissue sections (40 m Thick) were incubated in blocking buffer containing 0.02% Triton-X (Sigma-Aldrich), 1% NHS (Gibco) and PBS 1× (Gibco). Samples were incubated with primary antibodies over night at 4° C. Alexa-488, Alexa-555 and/or Alexa-647 (1:500, Thermofisher) were used as secondary antibodies. DAPI (1:500, Thermofisher) was used to stain nuclei. […]

In the case of C16-A2G2E4GIKVAV [IKVAV PA2], the “percentage of proliferating EdU+ and SOX2+ cells” value was “decreased significantly”. The “percentage of neuronal progenitor cells PAX6+” value (one week later) was “increased percentage”.

Values taken from patent publication US20240325548A1, “DYNAMIC BIOACTIVE SCAFFOLDS AND THERAPEUTIC USES THEREOF AFTER CNS INJURY” (Northwestern University, priority 2021, published 2024).
